# Legend:
# [1] = Dynamic Vapor Sorption (DVS) isotherm, 0-90-0% RH cycle, two cycles; assay type: physicochemical
# [2] = Dynamic Vapor Sorption (DVS) isotherm, 0-80-0% RH cycle; assay type: physicochemical; details: for Change In Mass (%) Desorption / Change In Mass (%) Hysteresis: 0-80-0% RH cycle, Cycle 1
# [3] = Physical form characterization (XRPD, DSC, TGA) after DVS exposure to 90% RH; assay type: physicochemical
# [4] = Physical form characterization (XRPD) after DVS exposure to 80% RH
smiles,measurement,setting,value
"CN(C)C(=O)c1cc2cnc(Nc3ccc(N4CCNCC4)cn3)nc2n1C1CCCC1.O=C(O)CCC(=O)O [Compound of Formula (II), 7-Cyclopentyl-N,N-dimethyl-2-(5-(piperazin-1-yl)pyridin-2-ylamino)-7H-pyrrolo[2,3-d]pyrimidine-6-carboxamide succinate]",moisture absorbed,[1]; at 90% RH in each cycle (0 to 90 to 0% RH),up to 2%
same,hygroscopic behavior,[1]; at high humidity conditions (90% RH),slight hygroscopic behavior
same,Change In Mass (%) Desorption,[2]; target RH 0.0%,0.0434%
same,Change In Mass (%) Desorption,[2]; target RH 10.0%,0.2958%
same,Change In Mass (%) Hysteresis,[2]; target RH 10.0%,0.0871%
same,Change In Mass (%) Desorption,[2]; target RH 20.0%,0.3436%
same,Change In Mass (%) Hysteresis,[2]; target RH 20.0%,0.0708%
same,Change In Mass (%) Desorption,[2]; target RH 30.0%,0.3806%
same,Change In Mass (%) Desorption,[2]; target RH 40.0%,0.4037%
same,Change In Mass (%) Hysteresis,[2]; target RH 40.0%,0.0133%
same,Change In Mass (%) Desorption,[2]; target RH 50.0%,0.4311%
same,Change In Mass (%) Hysteresis,[2]; target RH 50.0%,0.0074%
same,Change In Mass (%) Desorption,[2]; target RH 60.0%,0.4614%
same,Change In Mass (%) Hysteresis,[2]; target RH 60.0%,0.0140%
same,Change In Mass (%) Desorption,[2]; target RH 70.0%,0.4952%
same,Change In Mass (%) Hysteresis,[2]; target RH 70.0%,0.0159%
same,Change In Mass (%) Desorption,[2]; target RH 80.0%,0.5200%
same,moisture absorbed,[2]; at 80% RH (0 to 80 to 0% RH),up to 0.5%
same,hygroscopic behavior,[2]; printed 'at 80° C.' (0 to 80 to 0% RH cycle),nearly non-hygroscopic behavior
same,physical form upon exposure to 90% RH,"[3]; XRPD, DSC, TGA after DVS 0-90-0% RH",change in physical form
same,weight loss at endothermic transition,"[3]; around 100° C., after exposure to 90% RH",3%
same,converted from the non-hydrate form to hydrate form,[3]; at 90% RH,about 7.35%
same,physical form upon exposure to 80% RH,[4]; XRPD after DVS 0-80-0% RH,stability of the physical form
same,converted from the non-hydrate form to hydrate form,[4]; at 80% RH,about 0.52%
"CN(C)C(=O)c1cc2cnc(Nc3ccc(N4CCNCC4)cn3)nc2n1C1CCCC1.O=C(O)CCC(=O)O [non-hydrate form, succinate salt of 7-Cyclopentyl-2-(5-piperazin-1-yl-pyridin-2-ylamino)-7H-pyrrolo[2,3-d]pyrimidine-6-carboxylic acid dimethylamide]",hygroscopicity,[2]; general statement,non-hygroscopicity
same,stability,[4]; general statement,good stability
